Assay results reported in patent US5104492A, “Recovery of carboxylic acids from water by precipitation from organic solutions” (The Regents of the University of California, priority 1990, dated 1992).

Assays:
[1] = Solubility in MIBK plus 0.064 M tri-octyl/decyl amine; assay type: physicochemical
Excerpt: (§1) The use of MIBK plus 0.064 M tri-octyl/decyl amine as an organic phase was studied.

[2] = Solubility in octanol (Example 4 repeated); assay type: physicochemical
Excerpt: as §1
The experiment of Example 4 was repeated using octanol as organic solvent.

[3] = Solubility in butyl ether (Example 4 repeated); assay type: physicochemical
Excerpt: as §1
The experiment of Example 4 was repeated using butyl ether as organic solvent.

[4] = Excerpt: An aqueous solution of fumaric acid was extracted with methyl isobutyl ketone (MIBK).

Acid Concentration ([1]; nearly anhydrous): 0.115 mol/L | Acid Concentration ([1]; water saturated): 0.158 mol/L | Acid Concentration ([2]; water 0.066 moles/liter): 0.0614 mol/L | Acid Concentration ([2]; water 1.54 moles/liter): 0.0899 mol/L | Acid Concentration ([2]; water 2.24 moles/liter): 0.0961 mol/L | Acid Concentration ([3]; water 0.0005 moles/liter): 0.0023 mol/L | Acid Concentration ([3]; water 0.084 moles/liter): 0.0036 mol/L | solubility relative to the level observed at saturation level of water [4]: less than 1/5th | amount of acid in MIBK extract ([4]; MIBK extract before stripping, […] by weight water): 0.0874 mol/L | solubility of the acid in the ketone ([4]; dry mibk): 15.8 mM
Structure (SMILES): O=C(O)/C=C/C(=O)O [fumaric acid]
